Experimental data reported in patent publication US11312713B2, “Imidazo[4,5-C]quinoline derivatives as LRRK2 inhibitors” (Pfizer Inc., priority 2017, dated 2022).

Legend:
[1] = target: LRRK2, WT (GST-tagged truncated LRRK2) (Homo sapiens, UniProt Q5S007); test: LRRK2 kinase assay (LanthaScreen), wild type; type: biochemical; conditions: wild type LRRK2; LanthaScreen, LRRKtide substrate
Method: (§1) LRRK2 kinase activity was measured using Lantha Screen technology from Invitrogen. GST-tagged truncated LRRK2 from Invitrogen (Cat #PV4874) was incubated with a fluorescein-labeled peptide substrate based upon ezrin/radixin/moesin (ERM), also known as LRRKtide (Invitrogen cat #PR8976A), in the presence of a dose response of compound. Upon completion, the assay was stopped and detected with a terbium labeled anti-phospho-ERM antibody (Invitrogen, cat #PR8975A). […] Using Echo acoustic dispensing, 60 nL of compound was transferred to a low volume Corning 384-well assay plate. 3 μL of a working solution of substrate (200 nM LRRKtide, 2 mM ATP) prepared in assay buffer (50 mM HEPES, pH 7.5, 3 mM MgCl2, with 2 mM DTT and 0.01% Brij35 added fresh) was added to the 60 nL compound assay plate. The kinase reaction was started with 3 μL of a working solution of LRRK2 enzyme at a concentration of 4 μg/m L. The final reaction concentrations were 100 nM LRRKtide, 1 mM ATP, 2 μg/mL LRRK2 enzyme and a compound dose response with a top dose of 3 μM. The reaction was allowed to progress at room temperature for 30 minutes and then stopped with the addition of 6 μL of detection buffer (20 mM Tris pH 7.6, 0.01% NP-40, 6 mM EDTA with 2 nM terbium labeled antiphospho-ERM). […] All final concentrations of substrate ATP and enzyme were the same.

mutant G2019S LRRK2 = mutant G2019S LRRK2 (Homo sapiens (Human), UniProt Q5S007, G2019S); test: LRRK2 kinase assay (LanthaScreen), G2019S mutant; type: biochemical; conditions: G2019S mutant LRRK2; LanthaScreen, LRRKtide substrate; read-out: LRRK2, G2019S IC50
Chain of mutant G2019S LRRK2 (Q5S007 whole entry G2019S): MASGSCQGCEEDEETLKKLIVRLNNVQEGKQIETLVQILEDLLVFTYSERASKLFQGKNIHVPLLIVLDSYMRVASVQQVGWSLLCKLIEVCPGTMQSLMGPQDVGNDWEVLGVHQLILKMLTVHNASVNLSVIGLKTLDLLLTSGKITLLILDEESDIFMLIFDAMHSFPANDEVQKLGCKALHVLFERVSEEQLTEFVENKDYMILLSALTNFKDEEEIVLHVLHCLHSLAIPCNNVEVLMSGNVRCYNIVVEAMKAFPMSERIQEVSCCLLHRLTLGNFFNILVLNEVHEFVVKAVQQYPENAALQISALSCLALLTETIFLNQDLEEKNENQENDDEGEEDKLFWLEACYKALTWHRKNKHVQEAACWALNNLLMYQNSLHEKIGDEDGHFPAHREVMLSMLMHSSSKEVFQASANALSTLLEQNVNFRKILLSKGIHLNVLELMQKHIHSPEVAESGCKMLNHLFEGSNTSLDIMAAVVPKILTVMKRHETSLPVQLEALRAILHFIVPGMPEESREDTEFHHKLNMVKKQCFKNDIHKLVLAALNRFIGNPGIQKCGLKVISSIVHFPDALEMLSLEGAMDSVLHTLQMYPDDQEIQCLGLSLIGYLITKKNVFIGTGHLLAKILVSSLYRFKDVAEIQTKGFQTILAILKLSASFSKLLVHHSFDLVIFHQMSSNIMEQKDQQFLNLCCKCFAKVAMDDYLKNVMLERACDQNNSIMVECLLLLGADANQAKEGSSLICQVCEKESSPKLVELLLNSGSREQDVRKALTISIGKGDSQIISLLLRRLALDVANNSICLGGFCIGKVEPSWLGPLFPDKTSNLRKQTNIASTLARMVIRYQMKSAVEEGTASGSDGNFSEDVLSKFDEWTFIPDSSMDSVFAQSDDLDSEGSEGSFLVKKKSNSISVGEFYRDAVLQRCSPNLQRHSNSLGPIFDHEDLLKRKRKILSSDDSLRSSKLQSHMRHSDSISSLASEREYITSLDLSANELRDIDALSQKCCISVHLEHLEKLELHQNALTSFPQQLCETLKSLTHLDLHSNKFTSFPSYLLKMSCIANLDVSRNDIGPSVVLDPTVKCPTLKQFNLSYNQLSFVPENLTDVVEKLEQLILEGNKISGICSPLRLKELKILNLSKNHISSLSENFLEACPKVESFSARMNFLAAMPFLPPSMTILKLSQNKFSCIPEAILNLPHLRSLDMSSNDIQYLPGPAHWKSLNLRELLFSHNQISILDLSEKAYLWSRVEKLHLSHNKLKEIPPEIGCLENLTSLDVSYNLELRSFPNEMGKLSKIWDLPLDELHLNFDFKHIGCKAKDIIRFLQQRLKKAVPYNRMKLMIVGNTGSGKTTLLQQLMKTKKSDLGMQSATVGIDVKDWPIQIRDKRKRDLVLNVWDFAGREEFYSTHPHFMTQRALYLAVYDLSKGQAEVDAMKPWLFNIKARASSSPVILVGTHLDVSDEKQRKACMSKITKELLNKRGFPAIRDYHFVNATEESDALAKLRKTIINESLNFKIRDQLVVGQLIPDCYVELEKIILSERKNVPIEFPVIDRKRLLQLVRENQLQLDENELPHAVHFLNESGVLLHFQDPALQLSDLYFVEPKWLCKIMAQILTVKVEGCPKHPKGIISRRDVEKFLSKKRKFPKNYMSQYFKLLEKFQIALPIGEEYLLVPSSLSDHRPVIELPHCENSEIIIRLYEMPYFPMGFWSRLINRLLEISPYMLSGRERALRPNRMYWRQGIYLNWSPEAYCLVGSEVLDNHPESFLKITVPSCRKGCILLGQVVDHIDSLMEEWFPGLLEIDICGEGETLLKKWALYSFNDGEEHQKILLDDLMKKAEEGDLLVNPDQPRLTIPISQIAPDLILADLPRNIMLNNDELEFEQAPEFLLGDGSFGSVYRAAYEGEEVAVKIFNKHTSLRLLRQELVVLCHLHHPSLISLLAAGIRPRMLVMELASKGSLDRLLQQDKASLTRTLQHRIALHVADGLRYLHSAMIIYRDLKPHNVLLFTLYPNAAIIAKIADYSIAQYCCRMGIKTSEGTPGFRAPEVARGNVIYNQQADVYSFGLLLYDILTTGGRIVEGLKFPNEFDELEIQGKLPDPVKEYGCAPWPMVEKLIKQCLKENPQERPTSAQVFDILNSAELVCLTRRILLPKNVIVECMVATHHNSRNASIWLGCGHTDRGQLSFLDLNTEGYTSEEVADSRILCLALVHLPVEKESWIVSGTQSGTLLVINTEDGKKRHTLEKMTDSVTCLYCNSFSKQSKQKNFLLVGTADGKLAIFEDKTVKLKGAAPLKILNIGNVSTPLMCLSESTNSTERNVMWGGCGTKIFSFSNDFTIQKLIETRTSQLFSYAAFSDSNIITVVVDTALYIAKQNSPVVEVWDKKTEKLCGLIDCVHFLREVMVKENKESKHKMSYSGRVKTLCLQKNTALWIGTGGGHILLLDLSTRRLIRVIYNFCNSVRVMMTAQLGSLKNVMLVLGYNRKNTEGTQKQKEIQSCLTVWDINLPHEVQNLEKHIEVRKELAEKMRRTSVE
Method: as §1

Cc1cnc(Cc2nc3cnc4ccc(Cl)cc4c3n2C2CN(C)CC2(F)F)cn1 (centres unmarked) [Example 50, 8-chloro-1-(4,4-difluoro-1-methylpyrrolidin-3-yl)-2-[(5-methylpyrazin-2-yl)methyl]-1H-imidazo[4,5-c]quinoline]
IC50 [1]: 5.06 nM | IC50 (mutant G2019S LRRK2): 1.11 nM

Cc1cc(Cc2nc3cnc4ccc(Cl)cc4c3n2C2CN(C)CC2(F)F)no1 (centres unmarked) [Example 51, 8-chloro-1-(4,4-difluoro-1-methylpyrrolidin-3-yl)-2-[(5-methyl-1,2-oxazol-3-yl)methyl]-1H-imidazo[4,5-c]quinoline]
IC50 [1]: 5.78 nM | IC50 (mutant G2019S LRRK2): 3.49 nM

Cc1cc(Cc2nc3cnc4ccc(Cl)cc4c3n2C2CN(C)CC2(F)F)no1 (centres unmarked) [Example 52, 8-chloro-1-(4,4-difluoro-1-methylpyrrolidin-3-yl)-2-[(5-methyl-1,2-oxazol-3-yl)methyl]-1H-imidazo[4,5-c]quinoline]
IC50 [1]: 15.1 nM | IC50 (mutant G2019S LRRK2): 12.9 nM

COCc1cn(Cc2nc3cnc4ccc(F)cc4c3n2C2CN(C)CC2(F)F)nn1 (centres unmarked) [Example 53, 1-(4,4-difluoro-1-methylpyrrolidin-3-yl)-8-fluoro-2-{[4-(methoxymethyl)-1H-1,2,3-triazol-1-yl]methyl}-1H-imidazo[4,5-c]quinoline]
IC50 [1]: 7.51 nM | IC50 (mutant G2019S LRRK2): 7.49 nM

COCc1cn(Cc2nc3cnc4ccc(Cl)cc4c3n2C2CCOCC2(F)F)nn1 (centres unmarked) [Example 55, 8-chloro-1-(3,3-difluorotetrahydro-2H-pyran-4-yl)-2-{[4-(methoxymethyl)-1H-1,2,3-triazol-1-yl]methyl}-1H-imidazo[4,5-c]quinoline]
IC50 [1]: 11.3 nM | IC50 (mutant G2019S LRRK2): 6.49 nM

Cc1nc(Cc2nc3cnc4ccc(C#N)cc4c3n2[C@@H]2CCN(CC(F)(F)F)C2)no1 [Example 56, 2-[(5-methyl-1,2,4-oxadiazol-3-yl)methyl]-1-[(3R)-1-(2,2,2-trifluoroethyl)pyrrolidin-3-yl]-1H-imidazo[4,5-c]quinoline-8-carbonitrile]
IC50 [1]: 6.46 nM | IC50 (mutant G2019S LRRK2): 6.48 nM

COc1cnn(Cc2nc3cnc4ccc(C#N)cc4c3n2[C@@H]2CCO[C@H](C)C2)c1 [Example 57, 2-[(4-methoxy-1H-pyrazol-1-yl)methyl]-1-[(2R,4R)-2-methyltetrahydro-2H-pyran-4-yl]-1H-imidazo[4,5-c]quinoline-8-carbonitrile]
IC50 [1]: 7.43 nM | IC50 (mutant G2019S LRRK2): 5.4 nM

C[C@@H]1C[C@H](n2c(Cc3nccs3)nc3cnc4ccc(Cl)cc4c32)CCO1 [Example 58, 8-chloro-1-[(2R,4R)-2-methyltetrahydro-2H-pyran-4-yl]-2-(1,3-thiazol-2-ylmethyl)-1H-imidazo[4,5-c]quinoline]
IC50 [1]: 5.35 nM | IC50 (mutant G2019S LRRK2): 3 nM

Cc1cc(Cc2nc3cnc4ccc(Cl)cc4c3n2C2CCOC(C(F)F)C2)no1 (stereo not drawn) [Example 59, 8-chloro-1-[cis-2-(difluoromethyl)tetrahydro-2H-pyran-4-yl]-2-[(5-methyl-1,2-oxazol-3-yl)methyl]-1H-imidazo[4,5-c]quinoline]
IC50 [1]: 6.6 nM | IC50 (mutant G2019S LRRK2): 8.16 nM

C[C@@H]1C[C@H](n2c(Cc3nccs3)nc3cnc4ccc(C#N)cc4c32)CCO1 [Example 61, 1-[(2R,4R)-2-methyltetrahydro-2H-pyran-4-yl]-2-(1,3-thiazol-2-ylmethyl)-1H-imidazo[4,5-c]quinoline-8-carbonitrile]
IC50 [1]: 5.79 nM | IC50 (mutant G2019S LRRK2): 4.17 nM

Cc1cn(Cc2nc3cnc4ccc(Cl)cc4c3n2[C@@H]2CCN(C)C2)nn1 [Example 62, 8-chloro-1-[(3R)-1-methylpyrrolidin-3-yl]-2-[(4-methyl-1H-1,2,3-triazol-1-yl)methyl]-1H-imidazo[4,5-c]quinoline]
IC50 [1]: 5.78 nM | IC50 (mutant G2019S LRRK2): 6.5 nM

C[C@@H]1C[C@H](n2c(Cc3csnn3)nc3cnc4ccc(C(F)(F)F)cc4c32)CCO1 [Example 63, 1-[(2R,4R)-2-methyltetrahydro-2H-pyran-4-yl]-2-(1,2,3-thiadiazol-4-ylmethyl)-8-(trifluoromethyl)-1H-imidazo[4,5-c]quinoline]
IC50 [1]: 6.96 nM | IC50 (mutant G2019S LRRK2): 3.04 nM

C[C@@H]1C[C@H](n2c(Cc3nccs3)nc3cnc4ccc(F)cc4c32)CCO1 [Example 64, 8-fluoro-1-[(2R,4R)-2-methyltetrahydro-2H-pyran-4-yl]-2-(1,3-thiazol-2-ylmethyl)-1H-imidazo[4,5-c]quinoline]
IC50 [1]: 9.8 nM | IC50 (mutant G2019S LRRK2): 6.87 nM

C[C@@H]1C[C@H](n2c(Cn3cncn3)nc3cnc4ccc(C(F)(F)F)cc4c32)CCO1 [Example 66, 1-[(2R,4R)-2-methyltetrahydro-2H-pyran-4-yl]-2-(1H-1,2,4-triazol-1-ylmethyl)-8-(trifluoromethyl)-1H-imidazo[4,5-c]quinoline]
IC50 [1]: 8.32 nM | IC50 (mutant G2019S LRRK2): 8.01 nM

Cc1cnc(Cc2nc3cnc4ccc(Cl)cc4c3n2[C@@H]2CCN(C)C2)cn1 [Example 67, 8-chloro-2-[(5-methylpyrazin-2-yl)methyl]-1-[(3R)-1-methylpyrrolidin-3-yl]-1H-imidazo[4,5-c]quinoline]
IC50 [1]: 8.03 nM | IC50 (mutant G2019S LRRK2): 8.55 nM

C[C@@H]1C[C@H](n2c(Cc3cscn3)nc3cnc4ccc(C(F)(F)F)cc4c32)CCO1 [Example 69, 1-[(2R,4R)-2-methyltetrahydro-2H-pyran-4-yl]-2-(1,3-thiazol-4-ylmethyl)-8-(trifluoromethyl)-1H-imidazo[4,5-c]quinoline]
IC50 [1]: 7.39 nM | IC50 (mutant G2019S LRRK2): 3.33 nM

Cc1nnc(Cc2nc3cnc4ccc(C(F)(F)F)cc4c3n2[C@@H]2CCO[C@H](C)C2)o1 [Example 70, 2-[(5-methyl-1,3,4-oxadiazol-2-yl)methyl]-1-[(2R,4R)-2-methyltetrahydro-2H-pyran-4-yl]-8-(trifluoromethyl)-1H-imidazo[4,5-c]quinoline]
IC50 [1]: 13.7 nM | IC50 (mutant G2019S LRRK2): 7.59 nM

CC1(C)CC(n2c(Cn3cncn3)nc3cnc4ccc(Cl)cc4c32)CCO1 (centres unmarked) [Example 71, 8-chloro-1-(2,2-dimethyltetrahydro-2H-pyran-4-yl)-2-(1H-1,2,4-triazol-1-ylmethyl)-1H-imidazo[4,5-c]quinoline]
IC50 [1]: 13.7 nM | IC50 (mutant G2019S LRRK2): 11.9 nM

COc1cnn(Cc2nc3cnc4ccc(Cl)cc4c3n2CC(C)(F)F)c1 [Example 72, 8-chloro-1-(2,2-difluoropropyl)-2-[(4-methoxy-1H-pyrazol-1-yl)methyl]-1H-imidazo[4,5-c]quinoline]
IC50 [1]: 12.1 nM | IC50 (mutant G2019S LRRK2): 7.17 nM

C[C@@H]1C[C@H](n2c(Cc3cnc(C(F)(F)F)cn3)nc3cnc4ccc(F)cc4c32)CCO1 [Example 73, 8-fluoro-1-[(2R,4R)-2-methyltetrahydro-2H-pyran-4-yl]-2-{[5-(trifluoromethyl)pyrazin-2-yl]methyl}-1H-imidazo[4,5-c]quinoline]
IC50 [1]: 16.9 nM | IC50 (mutant G2019S LRRK2): 13 nM

Cc1nnc(Cc2nc3cnc4ccc(C(F)(F)F)cc4c3n2[C@@H]2CCO[C@H](C)C2)s1 [Example 74, 1-[(2R,4R)-2-methyltetrahydro-2H-pyran-4-yl]-2-[(5-methyl-1,3,4-thiadiazol-2-yl)methyl]-8-(trifluoromethyl)-1H-imidazo[4,5-c]quinoline]
IC50 [1]: 26.1 nM | IC50 (mutant G2019S LRRK2): 13.5 nM

Cc1nc(Cc2nc3cnc4ccc(Cl)cc4c3n2C2CCOCC2(F)F)no1 (centres unmarked) [Example 75]
IC50 [1]: 25.7 nM | IC50 (mutant G2019S LRRK2): 26.5 nM

Cc1cc(Cc2nc3cnc4ccc(C(F)(F)F)cc4c3n2[C@@H]2CCO[C@H](C)C2)ncn1 [Example 76, 2-[(6-methylpyrimidin-4-yl)methyl]-1-[(2R,4R)-2-methyltetrahydro-2H-pyran-4-yl]-8-(trifluoromethyl)-1H-imidazo[4,5-c]quinoline]
IC50 [1]: 17.3 nM | IC50 (mutant G2019S LRRK2): 12 nM

CC(C#N)Cc1nc2cnc3ccc(Cl)cc3c2n1[C@@H]1CCO[C@H](C)C1 (stereo partly drawn) [Example 78, 3-{8-chloro-1-[(2R,4R)-2-methyltetrahydro-2H-pyran-4-yl]-1H-imidazo[4,5-c]quinolin-2-yl}-2-methylpropanenitrile]
IC50 [1]: 25.8 nM | IC50 (mutant G2019S LRRK2): 13.2 nM

Fc1ccc2ncc3nc(Cc4csnn4)n(C4CCC(F)C4)c3c2c1 (stereo not drawn) [Example 79, 8-fluoro-1-[cis-3-fluorocyclopentyl]-2-(1,2,3-thiadiazol-4-ylmethyl)-1H-imidazo[4,5-c]quinoline]
IC50 [1]: 9.73 nM | IC50 (mutant G2019S LRRK2): 9.75 nM

C[C@@H]1C[C@H](n2c(CCC#N)nc3cnc4ccc(Cl)cc4c32)CCO1 [Example 80, 3-{8-chloro-1-[(2R,4R)-2-methyltetrahydro-2H-pyran-4-yl]-1H-imidazo[4,5-c]quinolin-2-yl}propanenitrile]
IC50 [1]: 9.4 nM | IC50 (mutant G2019S LRRK2): 11.3 nM

Cc1nnn(Cc2nc3cnc4ccc(C(F)(F)F)cc4c3n2[C@@H]2CCO[C@H](C)C2)n1 [Example 81, 1-[(2R,4R)-2-methyltetrahydro-2H-pyran-4-yl]-2-[(5-methyl-2H-tetrazol-2-yl)methyl]-8-(trifluoromethyl)-1H-imidazo[4,5-c]quinoline]
IC50 [1]: 16.9 nM | IC50 (mutant G2019S LRRK2): 7.5 nM

Cc1cn(Cc2nc3cnc4ccc(Cl)cc4c3n2C2CN(C)CC2(F)F)nn1 (centres unmarked) [Example 82, 8-chloro-1-(4,4-difluoro-1-methylpyrrolidin-3-yl)-2-[(4-methyl-1H-1,2,3-triazol-1-yl)methyl]-1H-imidazo[4,5-c]quinoline]
IC50 [1]: 6.33 nM | IC50 (mutant G2019S LRRK2): 4.64 nM
